What was measured:
[1] = biological target: Bafilomycin-Sensitive ATPase in Chicken Osteoclasts; experiment: Inhibition of bafilomycin-sensitive ATPase activity in purified membrane vesicles (Pi release, malachite green); type: biochemical; settings: chicken osteoclast membranes
Protocol: Preparation of crude bone microsomes from calcium-starved egg-laying hens.
Vesicles were prepared from medullar bone obtained from tibiae and femurs of egg-laying hens which were calcium-starved for at least 15 days. Briefly, bone fragments were scraped with a 24 scalpel blade, suspended in 40 ml of isolation medium (0.2M sucrose, 50 mM KCl, 10 mM Hepes, 1 mM EGTA, 2 mM dithiotheitrol, pH 7.4) and filtered through a 100 μm pore size nylon mesh. The whole procedure was performed at 4° C. After homogenisation in a potter (20 strokes) in 40 ml of isolation medium an initial centrifugation (6,500×gmax ×20 min) was performed to remove mitochondria and lysosomes. The supernatant was centrifuged at 100,000×gmax for 1 hr and the pellet was collected in 1 ml of isolation medium, divided into 200 μl aliquots, immediately frozen in liquid nitrogen and stored at […]. The protein content was determined using a Biorad colourimetric kit according to Bradford [M. Bradford, Anal. Biochem., 72, 248 (1976)]. For the proton transport assay, 5-10 μl of membranes were used.
Purification of osteoclast membranes. 1 ml of crude microsomal vesicles prepared above were applied (about 0.2 ml per tube) on the top of a sucrose step-gradient consisting of 3.5 ml of 15%, 30% and 45% (w/w) sucrose in isolation medium and centrifuged at 280,000 gmax for 2 hours (SW 41 Ti rotor). After centrifugation the 30-45% sucrose interfaces were collected, diluted approx. 20-fold in isolation medium and pelletted at 100,000 gmax for 1 hour (SW 28 rotor). The pellet was then resuspended in 1 ml of isolation medium, aliquoted and frozen in liquid N2 and stored at -80° C. until used.
Inhibition of bafilomycin-sensitive ATPase activity was assessed in purified membrane vesicles by measuring the release of inorganic phosphate (Pi) during 30 min of incubation at 37° C. in a 96-well plate either in the presence or in the absence of bafilomycin A1. The reaction medium contained 1 mM ATP, 10 mM HEPES-Tris pH 8, 50 MM KCl, 5 uM valinomycin, 5 uM nigericin, 1 mM CDTA-Tris, 100 uM ammonium molybdate, 0.2M sucrose and membranes (20 ug protein/ml). The reaction was initiated by MgSO4 (8-arm pipette) and stopped, after 30 min, by addition of 4 volumes of the malachite green reagent (96-arm pipette) prepared according to Chan [Anal. Biochem. 157, 375 (1986)]. Absorbance at 650 nm was measured after 2 min using a microplate reader. Results are expressed as μmol (Pi)×mg protein^-1 ×hour^-1 and, for each experiment, represent the mean±sem of triplicates.

[2] = test system: osteoclast proton pump; settings: avian osteoclast membrane vesicles, ATP-driven acidification; cited from earlier work
[3] = test system: osteoclast cultures; settings: cited from earlier work

Row | Structure (SMILES) | IC50 [1] [µM] | inhibition of proton transport [2] | inhibition of bone resorption [3]
1 | CO/C(=C\C=C\c1cc2ccccc2o1)C(=O)NC1CC(C)(C)NC(C)(C)C1 [Example 3, (2Z,4E)-5-(Benzofuran-2-yl)-2-methoxy-N-((2,2,6,6-tetramethyl)-piperidin-4-yl)-2,4-pentadienamide] | 8.6 |  | 
2 | CO/C(=C\C=C\c1cc2ccccc2o1)C(=O)NC1CC(C)(C)N(C)C(C)(C)C1 [Example 5, (2Z,4E)-5-(Benzofuran-2-yl)-2-methoxy-N[(1,2,2,6,6-pentamethyl)-piperidin-4-yl]-2,4-pentadienamide] | 11 |  | 
3 | CO/C(=C\C=C\c1cc2cc(Cl)ccc2o1)C(=O)NC1CC(C)(C)N(C)C(C)(C)C1 [Example 8] | 0.5 |  | 
4 | CCN(CC)CCCNC(=O)/C(=C/C=C/c1cc2cc(Cl)ccc2o1)OC [Example 9, (2Z,4E)-5-(5-Chlorobenzofuran-2-yl)-N-(3-diethylaminopropyl)-2-methoxy-2,4-pentadienamide] | 10 |  | 
5 | CO/C(=C\C=C\c1cc2ccccc2s1)C(=O)NC1CC(C)(C)N(C)C(C)(C)C1 [Example 12, (2Z,4E)-5-(Benzothiophen-2-yl)-2-methoxy-N-[(1,2,2,6,6-pentamethyl)-piperidin-4-yl]-2,4-pentadienamide] | 10.6 |  | 
6 | CCN1C(=O)C=CC1=O [N-ethylmaleimide] |  | inhibited | 
7 | Cc1nc2c(OCc3ccccc3)cccn2c1CC#N [SCH 28080] |  | not inhibited | 
8 | CO/C1=C\C(C)=C\[C@@H](C)[C@@H](O)[C@@H](C)C/C(C)=C/C=C/[C@H](OC)[C@@H]([C@@H](C)[C@@H](O)[C@H](C)[C@@]2(O)C[C@@H](O)[C@H](C)[C@@H](C(C)C)O2)OC1=O [bafilomycin A1] |  | inhibited | able to inhibit bone resorption
9 | COc1ccc2[nH]c([S+]([O-])Cc3ncc(C)c(OC)c3C)nc2c1 (stereo not drawn) [omeprazole] |  | not inhibited | 
10 | C[C@@H]1O[C@@H](O[C@H]2C[C@@H](O)[C@]3(CO)[C@H]4[C@H](O)C[C@]5(C)[C@@H](C6=CC(=O)OC6)CC[C@]5(O)[C@@H]4CC[C@]3(O)C2)[C@H](O)[C@H](O)[C@H]1O [ouabain] |  | not inhibited | 
11 | [Na+].[Na+].[Na+].[O]=[V]([O-])([O-])[O-] [sodium orthovanadate] |  | not inhibited | 

Reference: patent US6025390A, “Heteroaromatic pentadienoic acid derivatives useful as inhibitors of bone resorption” (SmithKline Beecham SpA, priority 1996, dated 2000)
